Patent publication US5922335A, “Uses for ascorbyl-phosphoryl-cholesterol in topical compositions” (Avon Products, Inc., priority 1998, dated 1999)

Columns and labels:
Human elastin promoter = assay: Inhibition of elastin gene promoter activity in UVB-irradiated cultured dermal fibroblasts transfected with promoter-reporter molecules; format: cell-based; conditions: for % Inhibition of elastin promoter activity at 6 hours / % Inhibition of elastin promoter activity at 12 hours: 100 μ Solution
Experimental: An art recognized method for evaluating the molecular events associated with increased elastin production was performed by measuring the activity of the elastin gene promoter, which is responsible for the activation of elastin gene transcription. (Bernstein, E. et al. 1995 Jour. Invest. Dermatol. 105:269-273).
Human elastin promoter molecules were linked to reporter molecules. The promoter-reporter linked molecules were then transfected into cultured dermal fibroblasts. Previous studies indicate that exposure of cultured fibroblasts to UVB radiation results in upregulation of elastin promoter activity. However, it is believed that UVA radiation may have an indirect effect on solar-induced elastosis.
Solutions of 1 μM to 100 μM of each 3'-(L-ascorbyl-2-o-phosphoryl)-cholesterol and ascorbic acid were produced. These solutions were then supplied to cultured fibroblasts. The control consisted of cultured fibroblasts in media containing neither 3'-(L-ascorbyl-2-o-phosphoryl)-cholesterol nor ascorbic acid.
The cultured fibroblasts were irradiated with single, dose of UVB radiation (5.5 mJ/cm^2) using an FS-40 light source. The spectrum of effectiveness of the FS-40 light source is estimated at 80 to 90% attributable to UVB. It is believed that 10 to 20% of the effectiveness of the FS-40 light source is attributable to […]. The activity attributable to UVA is believed to be negligible.

[1] = test system: cultured human keratinocytes; assay: Triglyceride biosynthesis in cultured normal human keratinocytes (3H-acetate incorporation); format: cell-based; conditions: 10 mM; 18.5 hours, then 3 hours with 3H-acetate; FIG. 1
Experimental: Normal human keratinocytes (hereinafter "NHK") were cultured and then divided into three groups. Each of the three groups were grown in various media for 18.5 hours, the various media being as follows:
1 mM "cold" sodium acetate
10 mM Cholesterylmonophosphate (CMP)
10 mM 3'-(L-ascorbyl-2-o-phosphoryl)-cholesterol
At the conclusion of 18.5 hours, 3H-acetate sodium salt (product number NEN#003H, 6.08 ci/mMole) was added to each group at 3 uCi/ml. The three groups were incubated at 37° C. for an additional 3 hours.
At the conclusion of the incubation period, each group was washed three times with iced PBS. The cells were then collected, sonicated and aliquated for lipid extraction using Bligh/Dyer method and for protein quantification.
The lipid extracts were subfracationated by Thin Layer Chromatography. Proteins were quantitated by Bradford assay.
Triglyceride biosythesis in cultured human keratinocytes is measured as a function of incorporation of 3-H acetate. The incorporation of 3-H acetate is expressed as counts per minute per milligram of 3-H acetate (cpm/mg 3H acetate). The results are illustrated in FIG. 1.

[2] = Hydroxyl radical scavenging activity by Electron Spin Resonance (DMPO, H2O2/FeSO4); format: biochemical; conditions: for Relative Peak Height (RPH): control 100.0; for Peak Height: pH 7.4
Experimental: Hydroxy radical scavenging activity was measured according to an art accepted method. (See Liu et al. Antioxidant Action of Guilingji in the Brain of Rats with FeCl3-induced Epilepsy, Free Radical Biol. & Med., (9:451-545, 1990.) Sample solutions of 3'-(L-ascorbyl-2-o-phosphoryl)-cholesterol of varying concentrations were prepared by dissolving 3'-(L-ascorbyl-2-o-phosphoryl)-cholesterol in 0.1M potassium phosphate buffer (pH=7.4). The following solutions were also prepared: 0.18M 5,5-dimethyl-1-pyrooline-N-oxide (hereinafter "DMPO") in 0.1M potassium phosphate buffer; 2 mM hydrogen peroxide (hereinafter "H2 O2 ") in 0.1M potassium phosphate buffer; and 0. 2 mM iron(II) sulfate (hereinafter "FeSO4 ") in distilled water. Fifty (50) […] of each of the aforedescribed solutions and […] of a sample solution were mixed for thirty (30) seconds and then placed in a flat cell. The Electron Spin Resonance was then measured using Free Radical Monitor JES-FR30, manufactured by JEOL, Tokyo, Japan, (hereinafter "FRM"). The FRM normalized all spectra for calculation by using an internal standard of manganese dioxide (hereinafter "MnO2 "). All peak heights were compared to the constant MnO2 signal generated. Each sample peak height was then divided by the MnO2 peak height to provide a relative peak height (hereinafter "RPH").

[3] = Superoxide anion scavenging by Electron Spin Resonance (hypoxanthine-xanthine oxidase system); format: biochemical; conditions: about 2.5 mg/ml; pH 7.4
Experimental: Superoxide anion scavenging ability was estimated according to the method described in the Liu et al. article noted above. Superoxide anion was generated by a hypoxanthine (hereinafter "HPX")-xanthine oxidase (hereinafter "XOD") system. The following solutions were prepared: 50 μl of 4 mM HPX in 0.1M potassium phosphate buffer; 30 μl of dimethyl sulfoxide, 50 μL of sample; 20 μL OF […] DMPO in 0.1M potassium phosphate buffer; and, 50 μl of XOD (0.4 units/ml) in 0.1M potassium phosphate buffer. The pH of the 0.1M potassium phosphate buffer was 7.4. The solutions of HPX, DMSO, DMPO, XOD and sample were mixed and transferred into a 200 μl-capacity flat cell. Electron Spin Resonance spectra was analyzed.

human skin fibroblasts = assay: Collagen biosynthesis by cultured human skin fibroblasts ([3H]-Proline Incorporation Assay); format: cell-based; conditions: 48 hours; for collagen biosynthesis, Dpm × 10^-3 / mg protein: control 1.55; for collagen biosynthesis, Dpm × 10^-5 / mg DNA: control 14.43
Experimental: An art-recognized [^3 H]-Proline Incorporation Assay was performed with differne does of 3'-(L-ascorbyl-2-o-phosphoryl)-cholesterol. Juva, Anal. Biocheml, Vol, 15, PAGES 77-83 (1966); Booth, Biochem. Biophys. Acta, Vol. 675, pages 117-122 (1981).
After the first 24 hours [^3 H]-labeled proline was added to the culture. Following the second 24 hour period, the cells are harvested and prepared for the collagen biosynthesis assay.
Protease inhibitors are added to prevent degradation of collagen and other proteins. The cell layer is scraped into a solution containing 0.4 M NaCl and 0.01 M Tris (pH 7.5). Extracts are sonicated to disrup cell membranes. Saparate volumes of the cell-containing solution (1 ml each) are dialyzed overnight against several changes of deionized water. The retentate is removed from dialysis and hydrolyzed in 6 N hydrochloric acid at 120 degrees C. overnight. The assay is performed using an oxidation process with 2 M chloramine-T. Samples are analyzed for radioactive counts, with represent the amount of newly synthesized [^3 H]-labeled proline - - - an index for new collagen synthesis.

SMILES: O=C1O[C@H]([C@@H](O)CO)C(O)=C1O [Ascorbic Acid, ascorbic acid, reference compound]
- % Inhibition of elastin promoter activity at 6 hours (Human elastin promoter; UVB 5.5 mJ/cm^2): 23%
- % Inhibition of elastin promoter activity at 12 hours (Human elastin promoter; UVB 5.5 mJ/cm^2): 0%

SMILES: CC(C)CCC[C@@H](C)[C@H]1CC[C@H]2[C@@H]3CC=C4C[C@@H](OP(=O)(O)OC5=C(O)[C@@H]([C@@H](O)CO)OC5=O)CC[C@]4(C)[C@H]3CC[C@]12C [3'-(L-ascorbyl-2-o-phosphoryl)-cholesterol]
- effect on elastin promoter activity in cultured fibroblasts (in words) (Human elastin promoter; 1 μM to 100 μM, UVB 5.5 mJ/cm^2): decreased elastin promoter activity in cultured fibroblasts in a dose dependent manner
- degree of elastin promoter inhibition compared with ascorbic acid (in words) (Human elastin promoter; 1 μM to 100 μM, compared to ascorbic acid): exhibits a far superior degree of elastin promoter inhibition
- % Inhibition of elastin promoter activity at 6 hours (Human elastin promoter; UVB 5.5 mJ/cm^2): 43%
- % Inhibition of elastin promoter activity at 12 hours (Human elastin promoter; UVB 5.5 mJ/cm^2): 34%
- duration of elastin promoter inhibition compared with ascorbic acid (in words) (Human elastin promoter; compared to ascorbic acid): inhibits elastin promoter activity for a significantly longer period of time than ascorbic acid
- triglyceride synthesis in cultured human keratinocytes (in words) [1]: significantly increases triglyceride synthesis in cultured human keratinocytes
- hydroxyl radical scavenging (in words) [2]: effective scavenger of hydroxyl radicals
- Relative Peak Height (RPH) ([2]; 0.0391 mg/ml): 100.0
- Peak Height ([2]; 0.0391 mg/ml): 1.60
- Relative Peak Height (RPH) ([2]; 0.0782 mg/ml): 85.0
- Peak Height ([2]; 0.0782 mg/ml): 1.36
- Relative Peak Height (RPH) ([2]; 0.1563 mg/ml): 78.1
- Peak Height ([2]; 0.1563 mg/ml): 1.25
- Relative Peak Height (RPH) ([2]; 0.3125 mg/ml): 57.5
- Peak Height ([2]; 0.3125 mg/ml): 0.92
- Relative Peak Height (RPH) ([2]; 0.6250 mg/ml): 30.6
- Peak Height ([2]; 0.6250 mg/ml): 0.49
- Relative Peak Height (RPH) ([2]; 1.2500 mg/ml): 9.4
- Peak Height ([2]; 1.2500 mg/ml): 0.15
- Relative Peak Height (RPH) ([2]; 2.5000 mg/ml): 5.6
- Peak Height ([2]; 2.5000 mg/ml): 0.09
- inhibition of the formation of the superoxide [3]: 50%
- dose dependence of stimulation in human skin fibroblasts (in words) (human skin fibroblasts; 11.3 to 45 μg/ml): increased production of new human skin fibroblasts in a dose dependent manner
- Stimulation - fold Increase of collagen biosynthesis (human skin fibroblasts; 11.3 μl/ml): 2.9 fold
- collagen biosynthesis, Dpm × 10^-3 / mg protein (human skin fibroblasts; 11.3 μl/ml): 5.17 Dpm × 10^-3 / mg protein
- collagen biosynthesis, Dpm × 10^-5 / mg DNA (human skin fibroblasts; 11.3 μl/ml): 42.07 Dpm × 10^-5 / mg DNA
- Stimulation - fold Increase of collagen biosynthesis (human skin fibroblasts; 22.5 μl/ml): 3.3 fold
- collagen biosynthesis, Dpm × 10^-3 / mg protein (human skin fibroblasts; 22.5 μl/ml): 5.02 Dpm × 10^-3 / mg protein
- collagen biosynthesis, Dpm × 10^-5 / mg DNA (human skin fibroblasts; 22.5 μl/ml): 48.31 Dpm × 10^-5 / mg DNA
- Stimulation - fold Increase of collagen biosynthesis (human skin fibroblasts; 45.0 μl/ml): 6.4 fold
- collagen biosynthesis, Dpm × 10^-3 / mg protein (human skin fibroblasts; 45.0 μl/ml): 11.07 Dpm × 10^-3 / mg protein
- collagen biosynthesis, Dpm × 10^-5 / mg DNA (human skin fibroblasts; 45.0 μl/ml): 92.25 Dpm × 10^-5 / mg DNA
